Structures are written as SMILES.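 Growth conditions: 96-well plates. Treatment: test compound, 48 hours, 5 concentrations. Analysis: linear interpolation between bracketing concentrations; unreached endpoints set to highest concentration. At the TGI there is no net growth.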 A value given as a limit tells only on which side of the number the result lay.

The source of these data is PubChem BioAssay (NCI).

Test systems include SK-OV-3 ovarian; NCI/ADR-RES ovarian; HOP-92 NSCLC; RXF 393 renal; HL-60(TB) leukemia; LOX IMVI melanoma; SK-MEL-2 melanoma; SW-620 colon; MDA-MB-435; T-47D breast; HCT-15 colon; SF-295 CNS; HT29 colon; MDA-MB-231 breast; RPMI-8226 leukemia; SK-MEL-28 melanoma; OVCAR-8 ovarian; TK-10 renal; HCC-2998 colon; OVCAR-3 ovarian.
Common to all, as to test: inhibition of tumour cell growth, NCI panel, 48 h

`CCOC(=O)C1C(C)C2(C#N)C(=N)OC1(C)C2(C#N)C#N` (stereo unspecified): the TGI with SK-OV-3 ovarian was more than 100 µM; in the test on NCI/ADR-RES ovarian, more than 100 µM; in the test with HOP-92 NSCLC, 97.1 µM; with RXF 393 renal, 92.7 µM; in the test on HL-60(TB) leukemia, 60.3 µM; with LOX IMVI melanoma, 67.1 µM. Moreover, the TGI in the test on SK-MEL-2 melanoma, in the test with SW-620 colon, in the test on MDA-MB-435, in the test with T-47D breast, in the test with HCT-15 colon and in the test on SF-295 CNS was more than 100 µM in each case. Besides, the TGI in the test on HT29 colon is more than 100 µM; with MDA-MB-231 breast it was more than 100 µM; with RPMI-8226 leukemia, 43.8 µM; in the test on SK-MEL-28 melanoma, more than 100 µM; with OVCAR-8 ovarian, more than 100 µM; with TK-10 renal, more than 100 µM.

Turning to `Clc1ccc(C(Cc2cccc(Cl)c2)c2c(Cl)nc(N3CCNCC3)nc2Cl)cc1` (stereo unspecified), the TGI was determined as 27.1 µM with SK-OV-3 ovarian; 36.2 µM with NCI/ADR-RES ovarian; 27.1 µM in the test on HOP-92 NSCLC; 23.1 µM with HL-60(TB) leukemia; 28.4 µM in the test on HCC-2998 colon; 25.5 µM in the test with LOX IMVI melanoma. The TGI in the test with SK-MEL-2 melanoma amounted to 40.9 µM; with SW-620 colon, 30.1 µM; in the test on MDA-MB-435, 30.3 µM; in the test with T-47D breast it was 31 µM; in the test on HCT-15 colon it was 26.4 µM; in the test with OVCAR-3 ovarian, 29.2 µM. The TGI in the test with SF-295 CNS was 31 µM; in the test with HT29 colon, more than 100 µM; in the test on MDA-MB-231 breast, 26.4 µM; with RPMI-8226 leukemia it was 52.2 µM; in the test on SK-MEL-28 melanoma it was 33.6 µM; in the test with OVCAR-8 ovarian, 38.4 µM. This compound also registered a TGI with TK-10 renal of 30.4 µM.

For the compound `O=c1cc(CSc2c(-c3ccccc3)c(=O)n(-c3ccccc3)c(=S)n2-c2ccccc2)[nH]c(=O)[nH]1`, the TGI in the test on SK-OV-3 ovarian, in the test with NCI/ADR-RES ovarian, in the test on RXF 393 renal, in the test with HL-60(TB) leukemia, with HCC-2998 colon and in the test with SK-MEL-2 melanoma was more than 100 µM each time. The TGI with SW-620 colon, in the test with MDA-MB-435, in the test with T-47D breast, in the test with HCT-15 colon, in the test with OVCAR-3 ovarian and with HT29 colon was more than 100 µM in each case. Besides, the TGI with MDA-MB-231 breast, with RPMI-8226 leukemia, in the test on SK-MEL-28 melanoma, in the test with OVCAR-8 ovarian and in the test on TK-10 renal was more than 100 µM each time.

For `N#Cc1ccc(CSC2=C(c3ccc(Cl)cc3)S/C(=C3\SC(SCc4ccc(C#N)cc4)=C(c4ccc(Cl)cc4)S3)S2)cc1`, the TGI in the test with SK-OV-3 ovarian, in the test with NCI/ADR-RES ovarian, in the test with RXF 393 renal, with HL-60(TB) leukemia, with HCC-2998 colon and in the test on LOX IMVI melanoma was more than 100 µM in each case. Also, the TGI with SK-MEL-2 melanoma, in the test with SW-620 colon, with MDA-MB-435, with T-47D breast, in the test on HCT-15 colon and with OVCAR-3 ovarian was more than 100 µM throughout. Also, the TGI with SF-295 CNS, with HT29 colon, with MDA-MB-231 breast, in the test on RPMI-8226 leukemia, in the test with SK-MEL-28 melanoma and in the test on OVCAR-8 ovarian was more than 100 µM throughout. This compound also had a TGI in the test with TK-10 renal of more than 100 µM.

Consider `COc1ccc2[nH]cc(C(=O)C(=O)NC34CC5CC(CC(C5)C3)C4)c2c1`, for which the TGI in the test with SK-OV-3 ovarian was more than 100 µM; in the test with NCI/ADR-RES ovarian, more than 100 µM; in the test with HOP-92 NSCLC, more than 100 µM; in the test on RXF 393 renal it was 16.8 µM; in the test on HCC-2998 colon, more than 100 µM; in the test on LOX IMVI melanoma, more than 100 µM. Besides, the TGI in the test on SK-MEL-2 melanoma was more than 100 µM; with SW-620 colon, more than 100 µM; in the test on MDA-MB-435, more than 100 µM; in the test on T-47D breast, more than 100 µM; in the test with HCT-15 colon it was more than 90.3 µM; in the test on OVCAR-3 ovarian, more than 49.5 µM. The TGI is more than 54.6 µM with SF-295 CNS; 5.32 µM in the test with HT29 colon; 97.9 µM with MDA-MB-231 breast; 19.8 µM with RPMI-8226 leukemia; more than 100 µM in the test on SK-MEL-28 melanoma; more than 100 µM in the test on OVCAR-8 ovarian. Also, in the test on TK-10 renal, the TGI was more than 100 µM.

For the compound `O=c1[nH]nc(Cc2ccccc2)n1CCCl`, the TGI in the test with SK-OV-3 ovarian, in the test with NCI/ADR-RES ovarian, in the test with RXF 393 renal, in the test with HL-60(TB) leukemia, in the test with HCC-2998 colon and in the test with LOX IMVI melanoma was more than 100 µM each time. Besides, the TGI in the test on SK-MEL-2 melanoma, in the test with SW-620 colon, with MDA-MB-435, in the test on T-47D breast, in the test on HCT-15 colon and in the test with OVCAR-3 ovarian was more than 100 µM in each case. The TGI with SF-295 CNS, in the test on HT29 colon, with MDA-MB-231 breast, in the test with RPMI-8226 leukemia, in the test on SK-MEL-28 melanoma and in the test with OVCAR-8 ovarian was more than 100 µM in each case.

Turning to `CC1CC/C(=C\c2ccc(N(C)C)cc2)C2=C1C(c1ccc(N(C)C)cc1)NC(=S)N2` (stereo unspecified), the TGI in the test with SK-OV-3 ovarian, in the test on NCI/ADR-RES ovarian, with RXF 393 renal, in the test on HL-60(TB) leukemia, with LOX IMVI melanoma and in the test on SK-MEL-2 melanoma was more than 100 µM throughout. Moreover, the TGI in the test with SW-620 colon, in the test with MDA-MB-435, in the test on T-47D breast, in the test on HCT-15 colon, in the test on OVCAR-3 ovarian and in the test with SF-295 CNS was more than 100 µM each time. The TGI in the test on HT29 colon, in the test with MDA-MB-231 breast, in the test on RPMI-8226 leukemia, in the test with SK-MEL-28 melanoma, with OVCAR-8 ovarian and in the test with TK-10 renal was more than 100 µM in each case.

On to `CC1(C)C2CC(O)C1CCC2=O` (stereo unspecified), for which the TGI in the test on SK-OV-3 ovarian, in the test on NCI/ADR-RES ovarian, with RXF 393 renal, with HL-60(TB) leukemia, in the test with HCC-2998 colon and in the test with LOX IMVI melanoma was more than 100 µM throughout. Moreover, the TGI in the test on SK-MEL-2 melanoma, with MDA-MB-435, with T-47D breast, in the test with HCT-15 colon, in the test on OVCAR-3 ovarian and in the test with SF-295 CNS was more than 100 µM each time. Besides, the TGI in the test with HT29 colon, with MDA-MB-231 breast, in the test with RPMI-8226 leukemia, in the test with SK-MEL-28 melanoma, in the test on OVCAR-8 ovarian and in the test with TK-10 renal was more than 100 µM each time.
